US20110256241A1, “METHODS AND COMPOSITIONS FOR THE TREATMENT OF CANCER” (TRASLATIONAL CANCER DRUGS PHARMA, S.L., priority 2008, published 2011)
Where two headings read alike, the source gives them in different places.

Legend:
[1] = system: H460 cells; experiment: Cell proliferation assay (MTT); type: cell-based, human
Protocol: All cell lines used in this study were maintained under standard conditions of temperature (37° C.), humidity (95%), and carbon dioxide (5%). Human primary bronchial epithelial cells, NHBE (BEC) (Cambrex, CC-2541) were grown in BEGM (Bronchial Epithelial cell growth media) BulletKit (Cambrex, CC-3170). Human primary mammary epithelial cells, HMEC (Clonetics, CC-2551) were grown in MEBM medium supplemented with a bullet kit (Clonetics, CC-3150). Epithelial non-small lung cancer cells H460 and H1299, and small cell lung cancer cell lines H510 and H82 were maintained in RPMI supplemented with 10% Fetal Bovine Serum (FBS) (Life Technologies, Grand Island, N.Y.).
(§1) Cells were seeded on 96-well plates (BD, Falcon, Bioscience, San Jose, Calif., USA) at a density of 6000 cells/well, and incubated for 24 h under standard conditions. Then, cells were treated with different concentrations of the ChoK inhibitors (quadruplicates of each concentration) and maintained for 72 hours. […] Absorbance is read at 595 nm in a VersaMax Microplate Reader (Molecular Devices, Sunnyvale, Calif., USA). For sensitization with acid ceramidase inhibitor, cells were pre-treated […] with the correspondent IC50 for NOE before treatment with ChoK inhibitors. NOE (N-Oleoyl ethanolamine) was obtained from Calbiochem (La Jolla, Calif., USA).
Thus, disruption in the levels of acid ceramidase may allow ChoK inhibitors to have a better effect in these cells. To verify this hypothesis, we used the previously characterized acid ceramidase inhibitor, N-Oleoylethanolamine (NOE) (Grijalvo S., Chem Phys Lipids. 2006; 144:69-84), to investigate if the inhibition of acid ceramidase sensitizes tumour cell lines to ChoK inhibitors. To that end, H460 cells were pre-treated with NOE for three hours to inhibit acid ceramidase.
H460 cells were pre-treated with these compounds for three hours to inhibit ceramidases. […] Furthermore, the combined use of ChoK inhibitors and acid ceramidase inhibitors provides a further stronger anticancer activity.

[2] = system: H460 xenografts; experiment: NSCLC xenografts, in vivo tumor growth inhibition
Protocol: Indicated cells were resuspended in DMEM just before inoculation (10^6 cells/0.1 ml), and injected subcutaneously in nu/nu immunosuppressed mice. Mice were kept under standard laboratory conditions according to the guidelines of the Spanish Government. When tumours reached a mean volume of 0.1 cm^3, mice were randomized to control and treated groups. Treatments with the antitumoral agents (and vehicle for control mice) were performed i.p. with following the indicated schedules. Tumors were monitored three times a week by measuring the major (D) and minor (d) diameters, and tumour volume was calculated by V=(D*d^2)/2. Statistical analysis of significant changes in tumour growth was calculated using SPSS software v. 13.0.

[3] = system: primary cultures of tumours of patients with NSCLC; experiment: Primary cultures of NSCLC tumours, crystal violet quantification; type: cell-based, human; conditions: primary NSCLC tumour cultures, 0-20 μM, 10 days
Protocol: Resected tissues from NSCLC patients were dissociated (Cell dissociation sieve-tissued grinder Kit CD1, SIGMA), and the obtained cells were seeded in 24 well plates (BD, Falcon, Bioscience, San Jose, Calif., USA). […] The final persistent population in each well was quantified by the method of Cristal Violet as previously described (Rodríguez-González, A. et al., Oncogene, 22:8803-8812). […]

[4] = system: H460stock cells; experiment: Cell proliferation assay (MTT); type: cell-based, human
Protocol: (§2) Cell lines resistant to MN58b and RSM-932A (identified as MN58R and RSM-932A-R, respectively) were generated by prolonged continuous exposure to increasing concentrations of each drug. A parallel control (H460 stock) of the cell line in the absence of the compounds was kept in culture for the same time.
as §1
(§3) To further study the mechanism underlying resistance to ChoK inhibition, as well as the implication of acid ceramidase in this effect, we used the human NSCLC-derived H460 cell line for a set of in vitro experiments. Maintaining this cell line in culture for 9 months with slightly increasing doses cycles of MN58b and a second-generation ChoKα inhibitor, RSM-932A, we established new cell lines with acquired resistance to these ChoKα inhibitors. A control cell line (H460 stock) was also established maintaining H460 in culture for the same time without treatment. Thus, established cells resistant to MN58b (H460 MN58R) and resistant to RSM-932A (H460 RSM-932A-R) were not affected at concentrations where normal H460 cells or control H460stock cells were dramatically affected. […] Furthermore, we found a strong cross-resistance between both ChoK inhibitors as it could be expected due to the similar mechanisms of action of these two antitumoral drugs (Table 9).

[5] = system: H460 MN58R cells; experiment: Cell proliferation assay (MTT); type: cell-based, human
Protocol: as §2, §1, §3

[6] = system: H460 RSM-932AR cells; experiment: Cell proliferation assay (MTT); type: cell-based, human
Protocol: as §2, §1, §3

[7] = system: SW620 cells; experiment: MTT cytotoxicity, ChoKI and TRAIL
Protocol: For this purpose, cells were seeded in 96 multiwell plates at a density of 1×10^4 cells/well 24 hours before treatment. Cells were treated with different concentrations of RSM-932A (ChoKI) or TRAIL for different times and the cell proliferation was quantified using the MTT [3-(4,5-Dimethylthiazol-2-yl)-2,5-Diphenyltetrazolium Bromide] colorimetric assay.

[8] = system: HT29 colon cancer cells; experiment: QT-PCR validation of 5-FU metabolization pathway genes; type: cell-based, human; parameters: key: DR (Down-regulation); UR (Up-regulation)
Protocol: (§4) 1 μg of RNA was used to generate cDNA using High-Capacity cDNA Archive Kit (Applied Biosystems), and quantitative real-time PCR was carried out in triplicate using the ABI PRISM 7700 Sequence Detector (Applied Biosystems). GAPDH and 18S ribosomal mRNA were amplified as internal controls. Probes used for amplification were from Applied Biosystems as Taqman Gene Expression Assays (ASAH1: HS00602774—M1 Taqman Probe, ASAH2: HS00184096_M1 Taqman Probe and ASAH3: HS00370322_M1 Taqman Probe, DUT: HS00798995_S1 Taqman Probe, TYMS: HS00426591_M1 Taqman Probe, UPP1: HS00427695—M1 Taqman Probe, RRM2: HS00357247_G1 Taqman Probe). The 2-^ΔΔCt method was used (Livak K J., Methods. 2001; 25:402-8) to calculate the relative expression of each gene.

[9] = system: DLD-1 colon cancer cells; experiment: as above; type: cell-based, human; parameters: key: DR (Down-regulation); UR (Up-regulation)
Protocol: as §4

[10] = system: SW62 colon cancer cells; experiment: as above; type: cell-based, human; parameters: key: DR (Down-regulation); UR (Up-regulation)
Protocol: as §4

[11] = system: H460 cells; experiment: Affymetrix gene expression analysis of 5-FU metabolization pathway; type: cell-based, human; parameters: key to RRM2 (Ribonucleotide Reductase) gene expression / TYMS (Thymidylate synthetase) gene expression / DUT (Deoxyuridine triphosphatase) gene expression: Signal Log Ratio, base 2 (1.0 = 2-fold increase, 0 = no change)
Protocol: The RNAs from the biopsies selected were isolated for microarrays and QT-PCR, using RNeasy Mini Kit (QIAGEN, Hilden, Germany) following the instructions of the manufactures. Samples were prepared and the array hybridized according to the Affymetrix GeneChip Expression Analysis Technical Manual. Hybridization to Affymetrix U133plus2 GeneChips (54,614 probe sets, representing 47,000 transcripts), staining, washing and scanning procedures were carried out at the Genomic Facility in the National Center of Biotechnology (Madrid, Spain) as described in www.affymetrix.com (Affymetrix, Santa Clara, Calif.). The Signal Log Ratio estimates the magnitude and direction of change of a transcript. The log scale used is base 2, thus a Signal Log Ratio of 1.0 indicates an increase of the transcript level by 2 fold and −1.0 indicates a decrease by 2 fold. A Signal Log Ratio of zero would indicate no change.
With the aim of further investigating the mechanism of ChoKIs sensitization to the antitumoral effect of 5-FU, a gene expression analysis of the 5-FU-metabolisation pathway was performed in H460 cells treated at different times with MN58b and RSM-932A using affymetrix technology.

[12] = system: DLD-1 cells; experiment: Apoptosis detection by flow cytometry, Annexin V & IP; type: cell-based, human; conditions: DLD-1, 7 hours treatment
Protocol: Cell death was analysed by flow cytometry using de Aposcreen Annexin V Apoptosis Kit (Southern Biotech) according to manufacturer procedures. Cells were seeded at 4×10^5 cells per well in six-well. Twenty-four hours later, cells were treated with the indicated compounds. Cells were rinsed twice in cold PBS and after removing it cells were resuspended in cold 1× binding buffer to a concentration from 1×10^6 to 1×10^7 cells/mL. 100 μl of these cells were collected in a flow cytometry tube and 10 μl of Annexin V were added. After gently vortexing, tubes were incubated for 15 minutes on ice, protected from light. Without washing, 380 μl of 1× binding buffer were added to each sample prior to 10 μl of propidium iodine. Cells were immediately analysed by flow cytometry.
The synergism observed in vitro was also analysed by flow cytometry using Annexin V & IP staining to distinguish between apoptosis and necrosis or late apoptosis. […] When DLD-1 cells are treated with TRAIL alone there is a 35% of apoptosis. In combination tumour cell death is amplified up to 50%. When DLD-1 are treated with RSM-932A (TCD-717) in combination with TRAIL there is a 55% increase in tumour cell death but mainly the necrotic or late apoptosis population because RSM-932A (TCD-717) has an effect that is faster than MN58. […]

[13] = FIG. 7B, combination given sequentially

Molecule CCCCCCCCCCCCCC(=O)N[C@H](CO)[C@H](O)c1ccc([N+](=O)[O-])cc1 [CAY, (1R,2R)-N-myristoylamino-4′-nitro-phenylpropandio1-1,3, reference compound] has an IC 50 ([1]; Homo sapiens, NCI-H460, combinations: pre-treated with ceramidase inhibitor for three hours, then ChoK inhibitor, read-out: IC50 (72 h)) of 28 µM.

N.N.[Cl][Pt][Cl] [Cisplatin, cisplatin, reference compound] was tested, and the “Statistical significance (p), tumour growth” value (shortened to “Statistical significance (p)”) ([2]; FIG. 7A, single agents) was 0.3, the “Statistical significance (p)” value [2, 13] was 0.441 and the “RESISTANT (% of samples)” value [3] was 50%. For the same molecule, the “RESISTANT (number of samples)” value [3] was 31, the “SENSITIVES (% of samples)” value [3] was 50% and the “SENSITIVES (number of samples)” value [3] was 31. The “IC 50” value [4] was 4.5 µg/mL, the “IC 50” value [5] was 2 µg/mL and the “IC 50” value [6] was 1.5 µg/mL. The “IC 50” value [1] was 5 µg/mL.

CCCCCCCCCCCCCC(=O)N[C@H](C)[C@@H](O)c1ccccc1 [DEM, (1S,2R)-N-myristoylamino-phenylpropanol-1, reference compound] gave an IC 50 ([1]; combinations: pre-treated with ceramidase inhibitor for three hours, then ChoK inhibitor, read-out: IC50 (72 h)) of 31 µM.

In the case of Nc1ccn([C@@H]2O[C@H](CO)[C@@H](O)C2(F)F)c(=O)n1 [Gemcitabine, gemcitabine], the “RESISTANT (number of samples)” value [3] is reported as 34 and the “SENSITIVES (number of samples)” value [3] is reported as 18.

CN(c1ccc(Cl)cc1)c1cc[n+](Cc2ccc(-c3ccc(C[n+]4ccc(N(C)c5ccc(Cl)cc5)c5ccccc54)cc3)cc2)c2ccccc12.[Br-].[Br-] [RSM-932A, 1,1′-(biphenyl-4, 4′-diylmethylene) bis[4-(4-chloro-N-methylanilino-)quinolinium]dibromide] was tested, and the “Statistical significance (p)” value [2, 13] was 0.157, the “cytotoxicity, percentage of cell death” value ([7]; SW620, combination: ChoKI pre-treatment 2 hours, then TRAIL 24 h) was 9% and the DUT expression [8] was “DR”. For the same molecule, the RRM expression [8] was “DR”, the TYM expression [8] was “DR” and the UPP expression [8] was “UR”. The DUT expression [9] was “DR”, the RRM expression [9] was “DR” and the TYM expression [9] was “DR”. The UPP expression [9] was “UR”, the DUT expression [10] was “DR” and the RRM expression [10] was “DR”. For the same molecule, the TYM expression [10] was “DR”, the UPP expression [10] was “UR” and the “DUT (Deoxyuridine triphosphatase) gene expression” value ([11]; H460, 9 h) was −1.12. For the same molecule, the “RRM2 (Ribonucleotide Reductase) gene expression” value ([11]; H460, 9 h) was −1.39, the “TYMS (Thymidylate synthetase) gene expression” value ([11]; H460, 9 h) was −1.03 and the “UPP1 (Uridine phosphorylase 1) gene expression” value ([11]; H460, 9 h) was “+1.83”. The “DUT (Deoxyuridine triphosphatase) gene expression” value ([11]; H460, 24 h) was −2.08, the “RRM2 (Ribonucleotide Reductase) gene expression” value ([11]; H460, 24 h) was −3.69 and the “TYMS (Thymidylate synthetase) gene expression” value ([11]; H460, 24 h) was −2.73. The “UPP1 (Uridine phosphorylase 1) gene expression” value ([11]; H460, 24 h) was “+2.48”.

In the case of CC(=O)O[C@H]1C(=O)[C@@]2(C)[C@H]([C@H](OC(=O)c3ccccc3)[C@]3(O)C[C@H](OC(=O)[C@H](O)[C@@H](NC(=O)c4ccccc4)c4ccccc4)C(C)=C1C3(C)C)[C@]1(OC(C)=O)CO[C@@H]1C[C@@H]2O [Taxol], the “RESISTANT (number of samples)” value [3] is reported as 35 and the “SENSITIVES (number of samples)” value [3] is reported as 27.

For CCC1=C[C@@H]2CN(C1)Cc1c([nH]c3ccccc13)[C@@](C(=O)OC)(c1cc3c(cc1OC)N(C)[C@H]1[C@@](O)(C(=O)OC)[C@H](OC(C)=O)[C@]4(CC)C=CCN5CC[C@]31[C@@H]54)C2 [Vinolrelbine, vinorelbine], the “RESISTANT (number of samples)” value [3] was 24 and the “SENSITIVES (number of samples)” value [3] was 15.

B1: TRAIL: extracellular domain of human TRAIL (amino acids 95-281) (protein, listed as Homo sapiens)
chain: TSEETISTVQEKQQNISPLVRERGPQRVAAHITGTRGRSNTLSSPNSKNEKALGRKINSWESSRSGHSFLSNLHLRNGELVIHEKGFYYIYSQTYFRFQEEIKENTKNDKQMVQYIYKYTSYPDPILLMKSARNSCWSKDAEYGLYSIYQGGIFELKENDRIFVSVTNEHLIDMDHEASFFGAFLVG
B1 was tested, and the apoptosis [12] was 35% and the “sensitivity to TRAIL” value ([7]; SW620, FIG. 8B) was “nearly resistant”.
